Results reported in patent US11135211B2, “Pimavanserin for treating impulse control disorder” (ACADIA Pharmaceuticals Inc., priority 2017, dated 2021).

Legend:
[1] = system: lean, female, Wistar rats; assay: Binge-eating on chocolate in rats (BED model); format: in vivo
Text: Carbohydrate and fat ‘comfort foods’, with bingeing on chocolate are known to be associated with eating disorders in humans and in rodents.
BED is, for example, to be studied using lean, female, Wistar rats (weight range 200-250 g at the start of the study) from Charles River, UK. Rats are to be contained in a controlled environment and housed in an appropriate way to perform the study, for example singly-housed in polypropylene cages with wire grid floors to enable food intake of each rat to be recorded. […]
Body weight, food and water intake are to be measured each day throughout the study, for example as described in the following: Animals are to be weighed at weekly intervals after arrival. […] The weights of the jars are to be recorded before and after the 2 h test session. […] The body weight of each rat and its food and water intake are to be measured on every morning of the study; readings are to be taken in the final stage of the light phase at ˜09:45 h. […]
During the training period, an extra food jar (along with the jar containing normal chow) containing chocolate are to be added to the cage for 2 hr/day intermittently, for at least three weeks, using the access schedule above. […] The chocolate and chow consumed during this 2 h period are to be measured. […]

[2] = system: 6-OHDA lesioned rats; assay: Forelimb step task (forelimb akinesia) in 6-OHDA lesioned rats; format: in vivo; conditions: co-administration with pramipexole
Description: Male Sprague-Dawley (outbred) rats (250-300 g; Harlan Laboratories, Indianapolis, Ind.) are to be pair-housed under environmentally controlled conditions under a 12 h light/dark cycle (lights on at 07:00); food and water are to be available ad libitum.
6-OHDA lesions will be carried out at described previously (Napier et al., Pramipexole-induced increased probabilistic discounting: comparison between a rodent model of Parkinson's disease and controls. Neuropsychopharmacology 37, 1397-1408, 2012). Prior to inducing lesions, desipramine (obtained from Sigma-Aldrich), a norepinephrine reuptake inhibitor, will be administered (25 mg/kg subcutaneously (sc)) to enhance selectivity of 6OHDA for dopamine neurons. Rats were anesthetized with isoflurane and secured in a stereotaxic frame. […]
Rats then will be trained for ICSS followed by probability discounting. […] Pramipexole will be infused for 14 days (optionally a similar time period may be used), during which probability discounting will be assessed each day. Forelimb akinesia will be evaluated before lesion, after lesion, and at various time points during pramipexole administration. […] Probability discounting will be assessed each day of chronic drug treatment; forelimb akinesia will be evaluated before lesion, after lesion, and at various time points during chronic drug administration.

[3] = system: rats with 6-hydroxydopamine (6OHDA)-induced lesions of the dorsolateral striatum (DLS); assay: ICSS-mediated probability discounting (risk-taking) in rat model of PD; format: in vivo; conditions: co-administration with pramipexole
Text: Impulsiveness includes a greater tendency for risk-taking. This tendency can be quantified using probability discounting procedures; a cross-species assessment in which the subject chooses between a small reinforcer (SR) delivered at a high probability, and a large reinforcer (LR) delivered at a low probability. Typically, the subjective value of the LR is discounted when its probability is low, and individuals then select the smaller, yet more certain reinforcer. Those who suffer from ICD are less sensitive to low probabilities than healthy individuals, and they more frequently select the LR even when the odds to obtain the reward are very low (Hendrickson, et al., Effects of mindful eating training on delay and probability discounting for food and money in obese and healthy-weight individuals. Behav. Res. Ther. 51, 399-409, 2013). […]
Rats then will be trained for ICSS followed by probability discounting. […] Pramipexole will be infused for 14 days (optionally a similar time period may be used), during which probability discounting will be assessed each day. Forelimb akinesia will be evaluated before lesion, after lesion, and at various time points during pramipexole administration. […]

[4] = system: PD patients; conditions: cited from earlier work

With CC(C)COc1ccc(CNC(=O)N(Cc2ccc(F)cc2)C2CCN(C)CC2)cc1 [pimavanserin, N-(1-methylpiperidin-4-yl)-N-(4-fluorophenylmethyl)-N′-(4-(2-methylpropyloxy)phenylmethyl)carbamide] the “consumption of standard laboratory diet during the 2 h binge-eating session” value ([1]; compared to vehicle treated control) was “no effect”, the “consumption of palatable food (chocolate) in 2 h binge-eating session” value ([1]; pimavanserin 0.1, 0.5, 1.0, 3.0, 6.0, 10.0 mg/kg po 60 min prior to session) was “decrease the consumption” and the “motor function in rats receiving pramipexole” value [2] was “did not alter motor function”. For the same compound, the “risk taking behavior in rats receiving pramipexole (proportion of rats selecting LR)” value [3] was “reduced risk taking behavior”, the “hallucinations and delusions associated with PD” value [4] was “control hallucinations and delusions” and the “motor function in PD patients” value [4] was “without impacting motor function”.
